Measurements reported in patent publication US20200078307A1, “POROUS SILICA PARTICLES FOR USE IN A COMPRESSED PHARMACEUTICAL DOSAGE FORM” (Nanologica AB, priority 2018, published 2020).
≈ marks a conversion by molar mass, not a printed value. Like-named read-outs stand apart in the source and are kept apart here.

Legend:
[1] = cited from earlier work
[2] = HPLC stability of melatonin during loading and storage; assay type: physicochemical; conditions: during loading and after storage at 4° C.
[3] = Release kinetics of melatonin, USP Apparatus 2 dissolution testing; assay type: physicochemical; conditions: after 20 minutes; 500 ml buffer pH 6.8, 50 rpm, 37° C., 5 mg melatonin
Protocol: The release kinetics of melatonin was monitored using a USP Apparatus 2 dissolution testing system. The release was performed in 500 ml buffer at pH 6.8 (reflecting the pH in the oral cavity, typically in the range of pH 6.7 to 7.3) at 50 rpm stirring rate and 37° C. The dose in the dissolution tests was equivalent to 5 mg of melatonin. Melatonin was bought from PureBulk, Inc. USA. The dosage form with melatonin was compared to reference product from CVS Health, USA using the technology mentioned in U.S. Pat. No. 9,381,190 Other ingredients in the formulation include Microcrystalline cellulose (MCC) and Low-Substituted Hydroxypropyl Cellulose (L-HPC) Mannitol and magnesium stearate.

| stability (HPLC) [2] | dissolution (melatonin released) [3] [%] | Compound | solubility ([1]; in buffer at pH 6.8) [µg/mL] | solubility ([1]; in water) [µg/mL] |
| --- | --- | --- | --- | --- |
|  |  | CCN(CC)CCNC(=O)c1cc(Cl)c(N)cc1OC [metoclopramide] | 10000 (≈ 33.4 mM) | > 6000 |
| no degradation | 93 | COc1ccc2[nH]cc(CCNC(C)=O)c2c1 [melatonin] |  |  |
